Experimental findings from paper PMC5218480 (PLoS ONE, 2017) are described below.

Each structure is given as a SMILES string.

The assay relates to MV-4-11 cells. Nature of the assay: Gene expression microarray analysis (Affymetrix PrimeView) and GSEA. The assay is classed as cell-based, human. Further details: RFU PODN (11730768_x_at) / Fold change /veh PODN (11730768_x_at) / RFU LINC00158 (11744669_a_at) / Fold change /veh LINC00158 (11744669_a_at) / RFU DUSP10 (11751237_a_at) / Fold change /veh DUSP10 (11751237_a_at) / RFU ID3 (11757404_x_at) / Fold change /veh ID3 (11757404_x_at) / RFU PLEKHG5 (11737974_s_at) / Fold change /veh PLEKHG5 (11737974_s_at) / RFU LRRC4B (11730491_at) / Fold change /veh LRRC4B (11730491_at) / RFU GIMAP4 (11747438_a_at) / Fold change /veh GIMAP4 (11747438_a_at) / RFU KRT8 (11758183_x_at) / Fold change /veh KRT8 (11758183_x_at) / RFU CNN1 (11734310_a_at) / Fold change /veh CNN1 (11734310_a_at) / RFU VPS37D (11726825_at) / Fold change /veh VPS37D (11726825_at) / RFU C10orf10 (11716522_x_at) / Fold change /veh C10orf10 (11716522_x_at) / RFU KIR2DL2 /// KIR2DL4 /// KIR2DL5A /// KIR2DL5B /// KIR2DS1 /// KIR2DS2 /// KIR2DS3 /// KIR2DS4 /// KIR3DL3 /// KIR3DL3 /// KIR3DS1 (11738374_at) / Fold change /veh KIR2DL2 /// KIR2DL4 /// KIR2DL5A /// KIR2DL5B /// KIR2DS1 /// KIR2DS2 /// KIR2DS3 /// KIR2DS4 /// KIR3DL3 /// KIR3DL3 /// KIR3DS1 (11738374_at) / RFU C1QL1 (11718748_at) / Fold change /veh C1QL1 (11718748_at) / RFU TMPRSS4 (11747572_a_at) / Fold change /veh TMPRSS4 (11747572_a_at) / RFU HAMP (11756126_x_at) / Fold change /veh HAMP (11756126_x_at) / RFU RNFT2 (11725882_a_at) / Fold change /veh RNFT2 (11725882_a_at) / RFU NR4A2 (11747474_a_at) / Fold change /veh NR4A2 (11747474_a_at) / RFU ABCC12 (11746883_a_at) / Fold change /veh ABCC12 (11746883_a_at) / RFU TMEM136 (11760407_x_at) / Fold change /veh TMEM136 (11760407_x_at) / RFU CLDN22 /// WWC2 (11732394_at) / Fold change /veh CLDN22 /// WWC2 (11732394_at) / RFU HLA-DPB1 (11760878_x_at) / Fold change /veh HLA-DPB1 (11760878_x_at) / RFU SPINT1 (11716480_a_at) / Fold change /veh SPINT1 (11716480_a_at) / RFU GAP43 (11754022_s_at) / Fold change /veh GAP43 (11754022_s_at) / RFU A4GNT (11735810_at) / Fold change /veh A4GNT (11735810_at) / RFU PRB3 (11715151_x_at) / Fold change /veh PRB3 (11715151_x_at) / RFU TUBB4B (11761932_at) / Fold change /veh TUBB4B (11761932_at) / RFU CAPN14 (11732068_a_at) / Fold change /veh CAPN14 (11732068_a_at) / RFU TMCC2 (11721928_a_at) / Fold change /veh TMCC2 (11721928_a_at) / RFU IRGQ (11745062_a_at) / Fold change /veh IRGQ (11745062_a_at) / RFU FAM174B (11720279_a_at) / Fold change /veh FAM174B (11720279_a_at) / RFU TMPRSS4 (11748680_a_at) / Fold change /veh TMPRSS4 (11748680_a_at) / RFU FAM212B (11763350_a_at) / Fold change /veh FAM212B (11763350_a_at) / RFU PLEKHG5 (11743358_a_at) / Fold change /veh PLEKHG5 (11743358_a_at) / RFU ZSCAN30 (11745921_a_at) / Fold change /veh ZSCAN30 (11745921_a_at) / RFU CMKLR1 (11741424_a_at) / Fold change /veh CMKLR1 (11741424_a_at) / RFU LOC101060620 /// MAPK8IP1 (11723275_at) / Fold change /veh LOC101060620 /// MAPK8IP1 (11723275_at) / RFU SPTSSB (11747773_x_at) / Fold change /veh SPTSSB (11747773_x_at) / RFU PRSS12 (11739890_at) / Fold change /veh PRSS12 (11739890_at) / RFU BIN1 (11741810_x_at) / Fold change /veh BIN1 (11741810_x_at) / RFU WNT11 (11732464_a_at) / Fold change /veh WNT11 (11732464_a_at) / RFU C10orf10 (11716521_a_at) / Fold change /veh C10orf10 (11716521_a_at) / RFU C5orf56 (11738089_at) / Fold change /veh C5orf56 (11738089_at) / RFU CYB561 (11721691_x_at) / Fold change /veh CYB561 (11721691_x_at) / RFU ANKRD19P (11752326_a_at) / Fold change /veh ANKRD19P (11752326_a_at) / RFU OR2T12 /// OR2T33 /// OR2T8 (11738714_s_at) / Fold change /veh OR2T12 /// OR2T33 /// OR2T8 (11738714_s_at) / RFU VCAN (11748164_a_at) / Fold change /veh VCAN (11748164_a_at) / RFU JSRP1 (11732532_at) / Fold change /veh JSRP1 (11732532_at) / RFU KRTAP10-11 (11738290_x_at) / Fold change /veh KRTAP10-11 (11738290_x_at) / RFU MYO3A (11730013_a_at) / Fold change /veh MYO3A (11730013_a_at) / RFU EBF3 (11725865_a_at) / Fold change /veh EBF3 (11725865_a_at) / RFU CAMK2N1 (11719241_x_at) / Fold change /veh CAMK2N1 (11719241_x_at) / RFU C5orf56 (11738088_a_at) / Fold change /veh C5orf56 (11738088_a_at) / RFU OLFML3 (11715873_a_at) / Fold change /veh OLFML3 (11715873_a_at) / RFU LOC100653217 /// NTM (11731650_a_at) / Fold change /veh LOC100653217 /// NTM (11731650_a_at) / RFU MAPK11 (11762145_a_at) / Fold change /veh MAPK11 (11762145_a_at) / RFU FIZ1 (11724087_x_at) / Fold change /veh FIZ1 (11724087_x_at) / RFU OASL (11726364_x_at) / Fold change /veh OASL (11726364_x_at) / RFU SOX15 (11748057_x_at) / Fold change /veh SOX15 (11748057_x_at) / RFU CD79A (11719716_a_at) / Fold change /veh CD79A (11719716_a_at) / RFU HIST1H1D (11736915_at) / Fold change /veh HIST1H1D (11736915_at) / RFU CASKIN2 (11723855_a_at) / Fold change /veh CASKIN2 (11723855_a_at) / RFU LOC730098 (11760151_x_at) / Fold change /veh LOC730098 (11760151_x_at) / RFU OR4N2 (11742367_at) / Fold change /veh OR4N2 (11742367_at) / RFU PRRT2 (11749266_a_at) / Fold change /veh PRRT2 (11749266_a_at) / RFU SNX32 (11753110_a_at) / Fold change /veh SNX32 (11753110_a_at) / RFU CDHR5 (11726645_a_at) / Fold change /veh CDHR5 (11726645_a_at) / RFU RCAN1 (11760418_a_at) / Fold change /veh RCAN1 (11760418_a_at) / RFU FAM167A (11723789_a_at) / Fold change /veh FAM167A (11723789_a_at) / RFU FAM26E (11764081_at) / Fold change /veh FAM26E (11764081_at) / RFU ISYNA1 (11749810_s_at) / Fold change /veh ISYNA1 (11749810_s_at) / RFU ACY1 (11761880_at) / Fold change /veh ACY1 (11761880_at) / RFU 11764098_at / Fold change /veh 11764098_at / RFU SAMD14 (11745864_x_at) / Fold change /veh SAMD14 (11745864_x_at) / RFU NPB (11741838_a_at) / Fold change /veh NPB (11741838_a_at) / RFU TMPRSS6 (11731388_a_at) / Fold change /veh TMPRSS6 (11731388_a_at) / RFU KRTAP10-2 (11738614_at) / Fold change /veh KRTAP10-2 (11738614_at) / RFU ARHGAP8 /// PRR5-ARHGAP8 (11727945_x_at) / Fold change /veh ARHGAP8 /// PRR5-ARHGAP8 (11727945_x_at) / RFU KRTAP5-7 /// NADSYN1 (11734609_at) / Fold change /veh KRTAP5-7 /// NADSYN1 (11734609_at) / RFU RASL12 (11751679_a_at) / Fold change /veh RASL12 (11751679_a_at) / RFU CDKN2B (11736163_a_at) / Fold change /veh CDKN2B (11736163_a_at) / RFU PRF1 (11729649_at) / Fold change /veh PRF1 (11729649_at) / RFU, ZNF638 /// ZNF638-IT1 / Fold change vs veh, ZNF638 /// ZNF638-IT1 / RFU, PANK3 / Fold change vs veh, PANK3 / RFU, SH3YL1 / Fold change vs veh, SH3YL1 / RFU, ZEB2 / Fold change vs veh, ZEB2 / RFU, NRIP1 / Fold change vs veh, NRIP1 / RFU, PTTG1IP / Fold change vs veh, PTTG1IP / RFU, CAPN2 / Fold change vs veh, CAPN2 / RFU, MED14 / Fold change vs veh, MED14 / RFU, SNORA58 / Fold change vs veh, SNORA58 / RFU, C1orf63 / Fold change vs veh, C1orf63 / RFU, LRRFIP1 / Fold change vs veh, LRRFIP1 / RFU, NDUFAF7 / Fold change vs veh, NDUFAF7 / RFU, SLC12A2 / Fold change vs veh, SLC12A2 / RFU, IBTK / Fold change vs veh, IBTK / RFU, ESF1 / Fold change vs veh, ESF1 / Fold change vs veh, TMEM50B / RFU, TAOK1 / Fold change vs veh, TAOK1 / RFU, ACBD3 / Fold change vs veh, ACBD3 / RFU, TMA16 / Fold change vs veh, TMA16 / RFU, RWDD3 / Fold change vs veh, RWDD3 / RFU, BCAT1 / Fold change vs veh, BCAT1 / RFU, EDEM3 / Fold change vs veh, EDEM3 / RFU, TMEM33 / Fold change vs veh, TMEM33 / RFU, WDR75 / Fold change vs veh, WDR75 / RFU, AHCTF1 / Fold change vs veh, AHCTF1 / RFU, TFRC / Fold change vs veh, TFRC / RFU, ZDHHC17 / Fold change vs veh, ZDHHC17 / RFU, NOM1 / Fold change vs veh, NOM1 / RFU, ARL8B / Fold change vs veh, ARL8B / RFU, ZBTB11 / Fold change vs veh, ZBTB11 / RFU, TAMM41 / Fold change vs veh, TAMM41 / RFU, KIAA1704 /// LOC100996395 / Fold change vs veh, KIAA1704 /// LOC100996395 / RFU, ING1 / Fold change vs veh, ING1 / RFU, TRMT61B / Fold change vs veh, TRMT61B / RFU, FUBP3 / Fold change vs veh, FUBP3 / RFU, TP53 / Fold change vs veh, TP53 / RFU, TNKS2 / Fold change vs veh, TNKS2 / RFU, ZFP14 / Fold change vs veh, ZFP14 / RFU, ACTR2 / Fold change vs veh, ACTR2 / RFU, PPP3R1 / Fold change vs veh, PPP3R1 / RFU, PIK3R1 / Fold change vs veh, PIK3R1 / RFU, HNRNPA1 / Fold change vs veh, HNRNPA1 / RFU, RNF170 / Fold change vs veh, RNF170 / RFU, ZNF28 / Fold change vs veh, ZNF28 / RFU, RNGTT / Fold change vs veh, RNGTT / RFU, OGT / Fold change vs veh, OGT / RFU, BRD1 / Fold change vs veh, BRD1 / RFU, MARS / Fold change vs veh, MARS / RFU, ZNF655 / Fold change vs veh, ZNF655 / RFU, FAHD1 / Fold change vs veh, FAHD1 / RFU, BDP1 / Fold change vs veh, BDP1 / RFU, LRRCC1 / Fold change vs veh, LRRCC1 / RFU, ARID1A / Fold change vs veh, ARID1A / RFU, ZNF146 / Fold change vs veh, ZNF146 / RFU, ZNF330 / Fold change vs veh, ZNF330 / RFU, GPN3 / Fold change vs veh, GPN3 / RFU, C9orf123 / Fold change vs veh, C9orf123 / RFU, N4BP2L2 / Fold change vs veh, N4BP2L2 / RFU, ARFIP1 / Fold change vs veh, ARFIP1 / RFU, FAM179B / Fold change vs veh, FAM179B / RFU, BCL10 / Fold change vs veh, BCL10 / RFU, UHRF1BP1L / Fold change vs veh, UHRF1BP1L / RFU, BET1 / Fold change vs veh, BET1 / RFU, CNOT2 / Fold change vs veh, CNOT2 / RFU, ZNF268 / Fold change vs veh, ZNF268 / Fold change vs veh, ZNF507 / RFU, DGCR2 / Fold change vs veh, DGCR2 / RFU, WDSUB1 / Fold change vs veh, WDSUB1 / Fold change vs veh, HSP90B1 /// MIR3652 / RFU, ADSS / Fold change vs veh, ADSS / RFU, GK / Fold change vs veh, GK / RFU, ZNF148 / Fold change vs veh, ZNF148 / RFU, TAF9 / Fold change vs veh, TAF9 / RFU, SLC1A5 / Fold change vs veh, SLC1A5 / RFU, SLMO2 / Fold change vs veh, SLMO2 / RFU, ABCC4 / Fold change vs veh, ABCC4 / RFU, LOC101060439 /// RAP1B / Fold change vs veh, LOC101060439 /// RAP1B / RFU, RFX7 / Fold change vs veh, RFX7 / RFU, GTPBP10 / Fold change vs veh, GTPBP10 / RFU, CNEP1R1 / Fold change vs veh, CNEP1R1 / RFU, BIVM-ERCC5 /// ERCC5 / Fold change vs veh, BIVM-ERCC5 /// ERCC5 / RFU, ILF3 / Fold change vs veh, ILF3 / RFU 11762660_at / Fold change /veh 11762660_at / RFU VCAN (11757783_s_at) / Fold change /veh VCAN (11757783_s_at) / RFU DDX43 (11728927_at) / Fold change /veh DDX43 (11728927_at) / RFU KRT8 (11758188_x_at) / Fold change /veh KRT8 (11758188_x_at) / RFU NKD1 (11759106_at) / Fold change /veh NKD1 (11759106_at) / RFU SRD5A1 (11742802_a_at) / Fold change /veh SRD5A1 (11742802_a_at) / RFU TPSAB1 /// TPSB2 (11721975_s_at) / Fold change /veh TPSAB1 /// TPSB2 (11721975_s_at) / RFU GSTM3 (11746129_a_at) / Fold change /veh GSTM3 (11746129_a_at) / RFU IL23R (11737362_x_at) / Fold change /veh IL23R (11737362_x_at) / RFU TMEM51 (11727254_a_at) / Fold change /veh TMEM51 (11727254_a_at) / RFU PIWIL2 (11732686_x_at) / Fold change /veh PIWIL2 (11732686_x_at) / RFU ORM1 (11744905_x_at) / Fold change /veh ORM1 (11744905_x_at) / RFU CCDC152 (11743942_at) / Fold change /veh CCDC152 (11743942_at) / RFU ECM1 (11717891_a_at) / Fold change /veh ECM1 (11717891_a_at) / RFU IL23R (11748794_a_at) / Fold change /veh IL23R (11748794_a_at) / RFU TNFAIP8L3 (11732012_x_at) / Fold change /veh TNFAIP8L3 (11732012_x_at) / RFU MBOAT4 (11741988_at) / Fold change /veh MBOAT4 (11741988_at) / RFU 11764193_at / Fold change /veh 11764193_at / RFU TMEM53 (11763286_at) / Fold change /veh TMEM53 (11763286_at) / RFU MAGEB2 (11727129_at) / Fold change /veh MAGEB2 (11727129_at) / RFU TMEM200A (11744735_a_at) / Fold change /veh TMEM200A (11744735_a_at) / RFU CCDC152 (11751479_a_at) / Fold change /veh CCDC152 (11751479_a_at) / RFU FAM211A (11726209_a_at) / Fold change /veh FAM211A (11726209_a_at) / RFU RGS16 (11746705_a_at) / Fold change /veh RGS16 (11746705_a_at) / RFU VCAN (11755009_s_at) / Fold change /veh VCAN (11755009_s_at) / RFU RHOB (11743442_s_at) / Fold change /veh RHOB (11743442_s_at) / RFU RGS16 (11720943_a_at) / Fold change /veh RGS16 (11720943_a_at) / RFU RGS16 (11720944_at) / Fold change /veh RGS16 (11720944_at) / RFU, VPS4B / Fold change vs veh, VPS4B / RFU, CREB1 / Fold change vs veh, CREB1 / RFU, DNAJC13 / Fold change vs veh, DNAJC13 / RFU, GNAQ / Fold change vs veh, GNAQ / RFU, CDK5R1 / Fold change vs veh, CDK5R1 / RFU, ZRANB3 / Fold change vs veh, ZRANB3 / RFU, CUL4A / Fold change vs veh, CUL4A / RFU, CCNY / Fold change vs veh, CCNY / RFU, UFL1 / Fold change vs veh, UFL1 / RFU, COG3 / Fold change vs veh, COG3 / RFU, DIAPH2 / Fold change vs veh, DIAPH2 / RFU, SKA2 / Fold change vs veh, SKA2 / RFU, AFF3 / Fold change vs veh, AFF3 / RFU, LMF1 / Fold change vs veh, LMF1 / RFU, IPO11 / Fold change vs veh, IPO11 / RFU, DFFB / Fold change vs veh, DFFB / RFU, FOXP1 / Fold change vs veh, FOXP1 / RFU, CARD8 / Fold change vs veh, CARD8 / RFU, STRN3 / Fold change vs veh, STRN3 / RFU, ADK / Fold change vs veh, ADK / RFU, RASSF2 / Fold change vs veh, RASSF2 / RFU, WIPF1 / Fold change vs veh, WIPF1 / RFU, LARP1B / Fold change vs veh, LARP1B / RFU, RASA1 / Fold change vs veh, RASA1 / RFU, RB1 / Fold change vs veh, RB1 / RFU, PPFIA1 / Fold change vs veh, PPFIA1 / RFU, MAT2A / Fold change vs veh, MAT2A / RFU, CCT5 / Fold change vs veh, CCT5 / RFU, WDR92 / Fold change vs veh, WDR92 / RFU, CUX1 / Fold change vs veh, CUX1 / RFU, TTC7A / Fold change vs veh, TTC7A / RFU, TMEM135 / Fold change vs veh, TMEM135 / RFU, DEPTOR / Fold change vs veh, DEPTOR / RFU, CPM / Fold change vs veh, CPM / RFU, DNAJB6 / Fold change vs veh, DNAJB6 / RFU, CACNA2D3 / Fold change vs veh, CACNA2D3 / RFU, DTX4 / Fold change vs veh, DTX4 / RFU, TFCP2 / Fold change vs veh, TFCP2 / RFU, GMCL1 /// GMCL1P1 / Fold change vs veh, GMCL1 /// GMCL1P1 / RFU, AEBP2 / Fold change vs veh, AEBP2 / RFU, SNHG1 /// SNORD22 /// SNORD25 /// SNORD26 /// SNORD27 /// SNORD28 /// SNORD29 /// SNORD31 / Fold change vs veh, SNHG1 /// SNORD22 /// SNORD25 /// SNORD26 /// SNORD27 /// SNORD28 /// SNORD29 /// SNORD31 / Fold change (Aza/veh), C12orf56 (ProbeSet 11735607_a_at) / Fold change (ACY-1035/veh), C12orf56 (ProbeSet 11735607_a_at) / Fold change (Aza/veh), FGFR1OP (ProbeSet 11751329_s_at) / Fold change (ACY-1035/veh), FGFR1OP (ProbeSet 11751329_s_at) / Fold change (Aza/veh), VPS36 (ProbeSet 11739960_a_at) / Fold change (ACY-1035/veh), VPS36 (ProbeSet 11739960_a_at) / RFU SYPL1 (11715823_x_at) / Fold change /veh SYPL1 (11715823_x_at) / RFU IGFBP7 (11715501_s_at) / Fold change /veh IGFBP7 (11715501_s_at) / RFU REEP3 (11722064_at) / Fold change /veh REEP3 (11722064_at) / RFU IGLL1 (11728026_x_at) / Fold change /veh IGLL1 (11728026_x_at): dose or concentration left out as unconfirmed. Particulars: ProbeSet 11764057_s_at; LIST B.

For the compound `Nc1ncn([C@@H]2O[C@H](CO)[C@@H](O)[C@H]2O)c(=O)n1` [azacitidine], the “Fold change vs veh, C1orf63” value was determined as 1.09.
